According to US20050181117A1, “Stent coating method” (Medtronic Vascular, Inc., priority 2003, published 2005):

Experiment: percent drug eluted over time from coated stent
Type: physicochemical
Settings: base coat podophyllotoxin, Cyclops-12, in THF; Cyclops-9 cap coat with THF as cap coat solvent (FIG. 6) vs acetone (FIG. 5)
Source text: The cap coating examples may be compatible with a variety of base coats of the present invention. In one embodiment, the cap coat provided by example 9 (e.g., Cyclops-9 in acetone) may be used with a base coat provided by example 6 (e.g., Resten-NG, PVPP, in methanol-water mix). The use of a cap coat may influence the release profile of the therapeutic agent, or drug. […] The stent is base coated with a Resten-NG, PVPP in methanol/water mixed solvent and (optionally) cap coated with a Cyclops-9 in acetone mixture.
In another embodiment, the cap coat provided by example 9 (e.g., Cyclops-9 in acetone or THF) may be used with a base coat provided by example 8 (e.g., podophyllotoxin, Cyclops-12, in THF). Depending on the solvent chosen for the cap coat (e.g., acetone or THF), a different drug release profile may be obtained. […] Thus, the drug release profile may be altered by using a different cap coat solvent.

COc1cc([C@@H]2c3cc4c(cc3[C@H](O)[C@H]3COC(=O)[C@H]23)OCO4)cc(OC)c1OC [podophyllotoxin]
elution rate (percent drug eluted over time): marked increase in elution rate
